According to paper PMC2663005 (Bioorganic & medicinal chemistry, 2009):

Experiments:
S. aureus SrtAΔN24 [1] = biological target: T1, S. aureus SrtAΔN24 (Staphylococcus aureus, UniProt Q2FV99); assay: biochemical; format: biochemical; conditions: for Hill Coefficient: fit of fractional activity vs inhibitor concentration
S. aureus SrtAΔN24 [2] = biological target: T1, S. aureus SrtAΔN24; assay: HPLC-based SrtA activity assay at fixed inhibitor concentrations; format: biochemical; conditions: read-out: percent inhibition (%I)
SrtA Cys184 = SrtA Cys184 (Staphylococcus aureus, UniProt Q2FV99); assay: ESI-MS and MS/MS of trypsin-digested inhibitor-treated SrtA; format: binding; conditions: SrtA incubated with compound, SDS-PAGE, trypsin digest

SMILES | Hill Coefficient (S. aureus SrtAΔN24 [1]) | other results
C=CS(=O)(=O)[C@H]1C[C@@](CCC(=O)OC)(C(=O)OC)N[C@H]1c1ccc(OC)c(OC)c1 (relative stereo) [Compound 2k, Methyl (2S*,4S*,5S*)-5-(3,4-dimethoxyphenyl)-4-ethenesulfonyl-2-(2-methoxycarbonylethyl)pyrrolidine-2-carboxylate] |  | IC50 (S. aureus SrtAΔN24 [1]): > 5 mM
C=CS(=O)(=O)[C@H]1C[C@@](CCC(=O)OC)(C(=O)OC)N[C@H]1c1cccnc1 (relative stereo) [Compound 2l, Methyl (2S*,4S*,5S*)-4-ethenesulfonyl-2-(2-methoxycarbonylethyl)-5-pyridin-3-yl-pyrrolidine-2-carboxylate] | 1.40 ± 0.33 | 
C=CS(=O)(=O)[C@H]1C[C@]2(C(=O)OC)CCC(=O)N2[C@H]1c1ccccc1 (relative stereo) [Compound 3j, Methyl (2S*,3S*,7aS*)-2-ethenesulfonyl-5-oxo-3-phenyltetrahydropyrrolizine-7a-carboxylate] | 1.90 ± 0.23 | 
C=CS(=O)(=O)[C@H]1C[C@]2(C(=O)OC)CCC(=O)N2[C@H]1c1ccc(OC)c(OC)c1 (relative stereo) [Compound 3k, Methyl (2S*,3S*,7aS*)-3-(3,4-dimethoxyphenyl)-2-ethenesulfonyl-5-oxotetrahydropyrrolizine-7a-carboxylate] | 1.39 ± 0.28 | 
C=CS(=O)(=O)[C@H]1C[C@]2(C(=O)OC)CCC(=O)N2[C@H]1c1cccnc1 (relative stereo) [Compound 3l, Methyl (2S*,3S*,7aS*)-2-ethenesulfonyl-5-oxo-3-pyridin-3-yl-tetrahydropyrrolizine-7a-carboxylate] | 1.42 ± 0.14 | 
Cc1cn(C[C@@H]2C[C@H](C#N)[C@H](c3ccccc3)N2C)c(=O)[nH]c1=O (relative stereo) [Compound 9, (2R*,3S*,5S*)-1-Methyl-5-(5-methyl-2,4-dioxo-3,4-dihydro-2H-pyrimidin-1-ylmethyl)-2-phenylpyrrolidine-3-carbonitrile] |  | inhibition at 1000 µM (S. aureus SrtAΔN24 [2]): 6%
C=CS(=O)(=O)C1CC(C(=O)OC)NC1c1cccc(F)c1 (stereo not shown) [Compound 2c] |  | covalent modification of SrtA (SrtA Cys184): formation of a covalent adduct with Cys184
